Experimental data: patent US20230089715A1, “MASITINIB FOR THE TREATMENT OF A MULTIPLE SCLEROSIS PATIENT SUBPOPULATION” (AB SCIENCE, priority 2020, published 2023)

Test system: patients with progressive multiple sclerosis (PPMS or non-active SPMS)
Experiment: Study AB07002: randomized, double-blind, placebo-controlled phase 3 study, overall EDSS change from baseline
Assay type: in vivo, human
Set-up: key to LSM EDSS, MAS (overall EDSS change from baseline): LS mean EDSS change from baseline; positive value = worsening
Conditions: 4.5 mg/kg/day oral, 96 weeks
Description: An international, multicenter, randomized, double-blind, placebo-controlled phase 3 study was conducted with the objective to evaluate oral masitinib at a dose of 4.5 mg/kg/day as a treatment for progressive multiple sclerosis (progressive MS), as defined hereinabove. […] Eligible patients were treated for 96 weeks with masitinib at a dose of 4.5 mg/kg/day (mg per kilo body weight per day) or with placebo. Primary endpoint was overall EDSS change from baseline using a repeated analysis of covariance model (i.e., ANCOVA GEE model on all measurements from week 12 (W12) to week 96 (W96)). Results are expressed as least-squares means difference, illustrating the progression of EDSS score, that is to say the change over time in the EDSS score or in other words the difference between the EDSS score at baseline and the EDSS score after treatment with masitinib or with placebo (a positive value indicates a worsening of the patient). Treatment-effect is reported as between-group difference (ΔLSM, negative value indicates a beneficial effect of treatment with masitinib as compared to treatment with placebo). […] Patients suffering from a disease other than MS that would better explain their neurological clinical signs and symptoms and/or lesions observed with magnetic resonance imaging (“MRI lesions”) were excluded. Subpopulation analyses of primary endpoint data from study AB07002 assessed the impact of the clinical markers ‘time from onset’ with respect to baseline (i.e., date of treatment initiation), derived from the estimated date of first clinical MS symptom(s), or ‘time from diagnosis’ with respect to baseline (i.e., date of treatment initiation), on masitinib efficacy in patients with progressive MS (see Example 3). ‘Time from onset’ is derived from the date (year/month/day, year/month, or year) of first clinical symptom(s) with duration calculated from date of treatment initiation. The date of first symptom(s) is typically determined retrospectively from medical history, for example from medical records and patient/caregiver historical recall of MS related symptoms following a clinically definite diagnosis. Imputation of missing data can be handled using various methods, one example of which is the following approach: if the information regarding day is missing, the day is considered to be the last day of the month; if the day and month are missing, the day is considered to be the last day of June. ‘Time from diagnosis’ of progressive MS, is ideally based on a clinically definite diagnosis of progressive MS as determined by a MS specialist neurologist. In practice it is derived from the date (year/month/day, year/month, or year) of first clinically definite diagnosis of progressive MS, i.e., PPMS or non-active SPMS, with duration calculated from date of treatment initiation. At the time of MS diagnosis, a provisional disease course should be specified (relapsing-remitting, primary progressive, or secondary progressive) and whether the course is active or not (non-active) and progressive or not based on the previous year's history. The phenotype should be periodically re-evaluated based on accumulated information. Comparison of subpopulation analyses with respect to the corresponding full analysis dataset (see Table 4) is reported as relative difference in ΔEDSS (R %). A large positive R % value indicates a subpopulation that receives greater benefit from masitinib treatment, while a negative R % value indicates a diminished treatment-effect or lack of discernable treatment-effect in the subpopulation.

[1] = PPMS, T(diag) > 2 Y and T(onset) > 5 Y
[2] = PPMS, complement T(diag) ≤ 2 Y or T(onset) ≤ 5 Y
[3] = Progressive MS, T(diag) > 2 Y and T(onset) > 5 Y

## Cc1ccc(NC(=O)c2ccc(CN3CCN(C)CC3)cc2)cc1Nc1nc(-c2cccnc2)cs1 [masitinib, 4-(4-methylpiperazin-1-ylmethyl)-N-[4-methyl-3-(4-pyridin-3ylthiazol-2-ylamino)phenyl]benzamide]
PPMS, T(diag) > 1 Y
  LSM EDSS, MAS (overall EDSS change from baseline): −0.004
  R % (relative difference in ΔEDSS with respect to full analysis dataset): 31%
  ΔEDSS (between group difference, treatment-effect vs placebo): −0.174
[1]
  LSM EDSS, MAS (overall EDSS change from baseline): −0.076
  ΔEDSS (between group difference, treatment-effect vs placebo): −0.283
PPMS, T(diag) > 2 Y and T(onset) > 5 Y, 4.5 mg/kg/day
  R % (relative difference in ΔEDSS with respect to full analysis dataset): 113%
PPMS, T(diag) > 2 Y
  LSM EDSS, MAS (overall EDSS change from baseline): −0.070
  ΔEDSS (between group difference, treatment-effect vs placebo): −0.246
PPMS, T(diag) > 2 Y, 4.5 mg/kg/day
  R % (relative difference in ΔEDSS with respect to full analysis dataset): 85%
PPMS, T(diag) > 3 Y
  LSM EDSS, MAS (overall EDSS change from baseline): −0.099
  ΔEDSS (between group difference, treatment-effect vs placebo): −0.211
PPMS, T(diag) > 3 Y, 4.5 mg/kg/day
  R % (relative difference in ΔEDSS with respect to full analysis dataset): 59%
PPMS, T(diag) > 4 Y
  LSM EDSS, MAS (overall EDSS change from baseline): 0.097
  R % (relative difference in ΔEDSS with respect to full analysis dataset): 25%
  ΔEDSS (between group difference, treatment-effect vs placebo): −0.166
PPMS, T(diag) ≤ 1 Y
  LSM EDSS, MAS (overall EDSS change from baseline): −0.097
  ΔEDSS (between group difference, treatment-effect vs placebo): 0.137
PPMS, T(diag) ≤ 2 Y
  LSM EDSS, MAS (overall EDSS change from baseline): 0.190
PPMS, T(diag) ≤ 3 Y
  LSM EDSS, MAS (overall EDSS change from baseline): 0.070
  ΔEDSS (between group difference, treatment-effect vs placebo): 0.009
PPMS, T(diag) ≤ 4 Y
  LSM EDSS, MAS (overall EDSS change from baseline): 0.099
  ΔEDSS (between group difference, treatment-effect vs placebo): −0.089
PPMS, T(onset) > 1 Y
  LSM EDSS, MAS (overall EDSS change from baseline): 0.040
  R % (relative difference in ΔEDSS with respect to full analysis dataset): −6%
  ΔEDSS (between group difference, treatment-effect vs placebo): −0.125
PPMS, T(onset) > 2 Y
  LSM EDSS, MAS (overall EDSS change from baseline): 0.026
  R % (relative difference in ΔEDSS with respect to full analysis dataset): 5%
  ΔEDSS (between group difference, treatment-effect vs placebo): −0.139
PPMS, T(onset) > 3 Y
  LSM EDSS, MAS (overall EDSS change from baseline): 0.021
  R % (relative difference in ΔEDSS with respect to full analysis dataset): 31%
  ΔEDSS (between group difference, treatment-effect vs placebo): −0.174
PPMS, T(onset) > 4 Y
  LSM EDSS, MAS (overall EDSS change from baseline): 0.028
  R % (relative difference in ΔEDSS with respect to full analysis dataset): 22%
  ΔEDSS (between group difference, treatment-effect vs placebo): −0.162
PPMS, T(onset) > 5 Y
  LSM EDSS, MAS (overall EDSS change from baseline): 0.029
  ΔEDSS (between group difference, treatment-effect vs placebo): −0.214
PPMS, T(onset) > 5 Y, 4.5 mg/kg/day
  R % (relative difference in ΔEDSS with respect to full analysis dataset): 61%
PPMS, T(onset) ≤ 3 Y
  LSM EDSS, MAS (overall EDSS change from baseline): 0.111
  ΔEDSS (between group difference, treatment-effect vs placebo): 0.349
PPMS, T(onset) ≤ 4 Y
  LSM EDSS, MAS (overall EDSS change from baseline): −0.082
  ΔEDSS (between group difference, treatment-effect vs placebo): 0.051
PPMS, T(onset) ≤ 5 Y
  LSM EDSS, MAS (overall EDSS change from baseline): 0.314
[2]
  LSM EDSS, MAS (overall EDSS change from baseline): 0.180
  ΔEDSS (between group difference, treatment-effect vs placebo): 0.118
PPMS, full analysis dataset
  LSM EDSS, MAS (overall EDSS change from baseline): 0.030
PPMS, full analysis dataset, 4.5 mg/kg/day
  ΔEDSS (between group difference, treatment-effect vs placebo): −0.133
PPMS, full analysis dataset, listed as Masitinib, 4.5 mg/kg/day
  ΔEDSS (between group difference, treatment-effect vs placebo): non-significant trend
Progressive MS, T(diag) > 1 Y
  LSM EDSS, MAS (overall EDSS change from baseline): −0.012
  R % (relative difference in ΔEDSS with respect to full analysis dataset): 10%
  ΔEDSS (between group difference, treatment-effect vs placebo): −0.109
[3]
  LSM EDSS, MAS (overall EDSS change from baseline): −0.057
  ΔEDSS (between group difference, treatment-effect vs placebo): −0.162
Progressive MS, T(diag) > 2 Y and T(onset) > 5 Y, 4.5 mg/kg/day
  R % (relative difference in ΔEDSS with respect to full analysis dataset): 64%
Progressive MS, T(diag) > 2 Y
  LSM EDSS, MAS (overall EDSS change from baseline): −0.029
  ΔEDSS (between group difference, treatment-effect vs placebo): −0.133
Progressive MS, T(diag) > 2 Y, 4.5 mg/kg/day
  R % (relative difference in ΔEDSS with respect to full analysis dataset): 34%
Progressive MS, T(diag) > 3 Y
  LSM EDSS, MAS (overall EDSS change from baseline): −0.068
  R % (relative difference in ΔEDSS with respect to full analysis dataset): 39%
  ΔEDSS (between group difference, treatment-effect vs placebo): −0.138
Progressive MS, T(diag) > 4 Y
  LSM EDSS, MAS (overall EDSS change from baseline): −0.053
  R % (relative difference in ΔEDSS with respect to full analysis dataset): 48%
  ΔEDSS (between group difference, treatment-effect vs placebo): −0.147
Progressive MS, T(diag) ≤ 1 Y
  LSM EDSS, MAS (overall EDSS change from baseline): −0.099
